From US20230339916A1, “PLANT GROWTH REGULATOR COMPOUNDS” (SYNGENTA CROP PROTECTION AG, priority 2020, published 2023)

Tested on: Corn leaf discs (variety Multitop)
Test: Dark induced senescence of corn leaf
Type: in vivo
Conditions: Zea mays, foliar, 192 h; corn leaf discs in the dark, 23° C., 75% humidity, 8 days; 100 μM-0.0001 μM, 0.5% DMSO; image analysis; read-out: IC50 (concentration at which 50% senescence was achieved)
Protocol: Corn plants of variety Multitop were grown in a greenhouse with relative 75% humidity and at 23-25° C. for 6 weeks. 1.4 cm diameter leaf discs were placed into 24-well plates containing test compounds in a concentration gradient (100 μM-0.0001 μM) at a final concentration of 0.5% DMSO. Each concentration was tested in 12 replicates. Plates were sealed with seal foil. The foil was pierced to provide gas exchange in each well. The plates were placed into the completely dark climatic chamber. Plates were incubated in the chamber with 75% humidity and at 23° C. for 8 days. On days 0, 5, 6, 7 and 8 photographs were taken of each plate, and image analysis conducted with a macro developed using the ImageJ software. The image analysis was used to determine the concentration at which 50% senescence was achieved (IC50), see Table 3. The lower the value, the higher senescence induction potency.

SMILES | IC50
CCOC(=O)/C(=C/OC1C=C(C)C(=O)O1)n1ncc2ccccc21 (stereo not shown) [Compound I-42-Z, ethyl (Z)-2-indazol-1-yl-3-[(4-methyl-5-oxo-2H-furan-2-yl)oxy]prop-2-enoate] | < 3000 nM
CCOC(=O)/C(=C/OC1OC(=O)C(C)=C1C)n1ccc2nccnc21 (stereo not shown) [Compound I-90-Z, ethyl (Z)-3-[(3,4-dimethyl-5-oxo-2H-furan-2-yl)oxy]-2-pyrrolo[2,3-b]pyrazin-5-yl-prop-2-enoate] | < 3000 nM
CCOC(=O)/C(=C/OC1C=C(C)C(=O)O1)N1C(=O)CSc2ccccc21 (stereo not shown) [Compound I-78-Z, ethyl (Z)-3-[(4-methyl-5-oxo-2H-furan-2-yl)oxy]-2-(3-oxo-1,4-benzothiazin-4-yl)prop-2-enoate] | < 3000 nM
CCOC(=O)/C(=C/OC1C=C(C)C(=O)O1)n1ccc2cncnc21 (stereo not shown) [Compound I-62-Z, ethyl (Z)-3-[(4-methyl-5-oxo-2H-furan-2-yl)oxy]-2-pyrrolo[2,3-d]pyrimidin-7-yl-prop-2-enoate] | < 3000 nM
CCOC(=O)/C(=C/OC1OC(=O)C(C)=C1C)N1CCc2cc(Br)ccc21 (stereo not shown) [Compound I-73-Z, ethyl (Z)-2-(5-bromoindolin-1-yl)-3-[(3,4-dimethyl-5-oxo-2H-furan-2-yl)oxy]prop-2-enoate] | < 3000 nM
CCOC(=O)/C(=C/OC1OC(=O)C(C)=C1OC)n1cc(C#N)c2ccccc21 (stereo not shown) [Compound I-88-Z, ethyl (Z)-2-(3-cyanoindol-1-yl)-3-[(3-methoxy-4-methyl-5-oxo-2H-furan-2-yl)oxy]prop-2-enoate] | < 3000 nM
CCOC(=O)/C(=C/OC1C=C(C)C(=O)O1)n1ccc2cc(C(F)(F)F)ccc21 (stereo not shown) [Compound I-2-Z, ethyl (Z)-3-[(4-methyl-5-oxo-2H-furan-2-yl)oxy]-2-[5-(trifluoromethyl)indol-1-yl]prop-2-enoate] | < 3000 nM
CCOC(=O)/C(=C/OC1C=C(C)C(=O)O1)n1nnc2ccccc21 (stereo not shown) [Compound I-31-Z, ethyl (Z)-2-(benzotriazol-1-yl)-3-[(4-methyl-5-oxo-2H-furan-2-yl)oxy]prop-2-enoate] | < 3000 nM
CCOC(=O)/C(=C/OC1C=C(C)C(=O)O1)n1nc(F)c2ccccc21 (stereo not shown) [Compound I-50-Z, ethyl (Z)-2-(3-fluoroindazol-1-yl)-3-[(4-methyl-5-oxo-2H-furan-2-yl)oxy]prop-2-enoate] | < 3000 nM
CC1=CC(O/C=C(/C#N)n2ncc3ccccc32)OC1=O (stereo not shown) [Compound I-43-Z, (Z)-2-indazol-1-yl-3-[(4-methyl-5-oxo-2H-furan-2-yl)oxy]prop-2-enenitrile] | < 3000 nM
CC1=C(C)C(O/C=C(/C#N)n2ncc3ccccc32)OC1=O (stereo not shown) [Compound I-47-Z, (Z)-3-[(3,4-dimethyl-5-oxo-2H-furan-2-yl)oxy]-2-indazol-1-yl-prop-2-enenitrile] | < 3000 nM
CCOC(=O)/C(=C/OC1OC(=O)C(C)=C1C)N1C(=O)CSc2ccccc21 (stereo not shown) [Compound I-79-Z, ethyl (Z)-3-[(3,4-dimethyl-5-oxo-2H-furan-2-yl)oxy]-2-(3-oxo-1,4-benzothiazin-4-yl)prop-2-enoate] | < 3000 nM
CCOC(=O)/C(=C/OC1OC(=O)C(C)=C1C)n1nnc2ccccc21 (stereo not shown) [Compound I-35-Z, ethyl (Z)-2-(benzotriazol-1-yl)-3-[(3,4-dimethyl-5-oxo-2H-furan-2-yl)oxy]prop-2-enoate] | < 3000 nM
CCOC(=O)/C(=C/OC1OC(=O)C(C)=C1C)n1nc(C)c(C)c1C (stereo not shown) [Compound I-81-Z, ethyl (Z)-3-[(3,4-dimethyl-5-oxo-2H-furan-2-yl)oxy]-2-(3,4,5-trimethylpyrazol-1-yl)prop-2-enoate] | < 3000 nM
CCOC(=O)/C(=C/OC1C=C(C)C(=O)O1)N1CCc2ccccc21 (stereo not shown) [Compound I-70-Z, ethyl (Z)-2-indolin-1-yl-3-[(4-methyl-5-oxo-2H-furan-2-yl)oxy]prop-2-enoate] | < 3000 nM

More lines, now with the values ahead:

IC50 | SMILES
< 3000 nM | CCOC(=O)/C(=C/OC1OC(=O)C(C)=C1C)n1ncc2ccccc21 (stereo not shown) [Compound I-46-Z, ethyl (Z)-3-[(3,4-dimethyl-5-oxo-2H-furan-2-yl)oxy]-2-indazol-1-yl-prop-2-enoate]
< 3000 nM | CCOC(=O)/C(=C/OC1OC(=O)C(C)=C1C)n1ccc2cc(-c3ccccc3)ccc21 (stereo not shown) [Compound I-11-Z, ethyl (Z)-3-[(3,4-dimethyl-5-oxo-2H-furan-2-yl)oxy]-2-(5-phenylindol-1-yl)prop-2-enoate]
< 3000 nM | CCOC(=O)/C(=C/OC1OC(=O)C(C)=C1C)n1ccc2cc(F)ccc21 (stereo not shown) [Compound I-9-Z, ethyl (Z)-3-[(3,4-dimethyl-5-oxo-2H-furan-2-yl)oxy]-2-(5-fluoroindol-1-yl)prop-2-enoate]
< 3000 nM | CCOC(=O)/C(=C/OC1OC(=O)C(C)=C1C)n1c(=O)sc2ccccc21 (stereo not shown) [Compound I-65-Z]
< 3000 nM | CCOC(=O)/C(=C/OC1OC(=O)C(C)=C1C)n1cc(C#N)c2ccccc21 (stereo not shown) [Compound I-26-Z, ethyl (Z)-2-(3-cyanoindol-1-yl)-3-[(3,4-dimethyl-5-oxo-2H-furan-2-yl)oxy]prop-2-enoate]
< 3000 nM | CCOC(=O)/C(=C/OC1OC(=O)C(C)=C1C)n1c(C)nc2ccccc21 (stereo not shown) [Compound I-59-Z, ethyl (Z)-3-[(3,4-dimethyl-5-oxo-2H-furan-2-yl)oxy]-2-(2-methylbenzimidazol-1-yl)prop-2-enoate]
< 3000 nM | CCOC(=O)/C(=C/OC1OC(=O)C(C)=C1C)n1nc(F)c2ccccc21 (stereo not shown) [Compound I-51-Z, ethyl (Z)-3-[(3,4-dimethyl-5-oxo-2H-furan-2-yl)oxy]-2-(3-fluoroindazol-1-yl)prop-2-enoate]
